target: human GSK3β (Homo sapiens, UniProt P49841); experiment: Screening for GSK3 inhibitory activity using a cell-free assay; assay type: biochemical; details: read-out: IC50 with respect to GSK3
Summary of the method: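 Compounds in DMSO were tested against human GSK3β over a three-hour kinase reaction. Radiolabeled phosphate transferred to the peptide was captured on streptavidin plates after EDTA/ATP stop and quantified by scintillation counting. Signal was plotted versus compound concentration.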

Chain of human GSK3β (P49841 whole entry): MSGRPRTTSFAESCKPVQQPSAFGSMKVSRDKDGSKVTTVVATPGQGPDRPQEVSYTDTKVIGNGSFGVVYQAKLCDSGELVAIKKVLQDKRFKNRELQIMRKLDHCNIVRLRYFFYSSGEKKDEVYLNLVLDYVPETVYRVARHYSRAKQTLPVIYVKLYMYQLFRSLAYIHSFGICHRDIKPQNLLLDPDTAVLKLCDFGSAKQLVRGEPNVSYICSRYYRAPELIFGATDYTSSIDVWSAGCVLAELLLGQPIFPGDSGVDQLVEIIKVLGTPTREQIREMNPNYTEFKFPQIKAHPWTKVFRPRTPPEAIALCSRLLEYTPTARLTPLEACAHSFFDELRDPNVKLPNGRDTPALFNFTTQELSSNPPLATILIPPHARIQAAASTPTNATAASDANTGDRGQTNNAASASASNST

Row | Compound | IC50 [µM]
1 | Cc1cccc(CNc2nccc(-c3ccc(C(N)=O)cc3)n2)c1 [4-(2-{[(3-methylphenyl)-methyl]amino}pyrimidin-4-yl)benzamide] | ≤ 10
2 | COc1ccc(CNC(=O)c2ccc(-c3ccnc(NCCNc4ccc([N+](=O)[O-])cn4)n3)cc2)cc1 [N-[(4-methoxyphenyl)methyl]{4-[2-({2-[(5-nitro(2-pyridyl))amino]ethyl}-amino)pyrimidin-4-yl]phenyl}carboxamide] | ≤ 10
3 | O=[N+]([O-])c1ccc(NCCNc2nccc(NCc3cccc(Cl)c3)n2)nc1 [[(3-chlorophenyl)methyl][2-({2-[(5-nitro(2-pyridyl))-amino]ethyl}amino)pyrimidin-4-yl]amine] | ≤ 10
4 | CC(=O)Nc1ccc(-c2ccnc(NCCNc3ccc([N+](=O)[O-])cn3)n2)cc1 [N-{4-[2-({2-[(5-nitro-2-pyridyl)amino]ethyl}amino)-pyrimidin-4-yl]phenyl}acetamide] | ≤ 10
5 | CCOC(=O)c1cnc(NCCNc2ccc([N+](=O)[O-])cn2)nc1-c1cccc(C#N)c1 [ethyl 4-(3-cyanophenyl)-2-({2-[(5-nitro(2-pyridyl))amino]ethyl}amino)pyrimidine-5-carboxylate] | ≤ 10
6 | NC(=O)c1ccc(-c2ccnc(NCCc3ccc4c(c3)OCO4)n2)cc1 | ≤ 10
7 | CCOC(=O)c1cnc(NCCNc2ccc([N+](=O)[O-])cn2)nc1-c1ccc(C)c(C)c1 [ethyl 4-(3,4-dimethylphenyl)-2-[{2-[(5-nitro(2-pyridyl))amino]ethyl}amino)pyrimidine-5-carboxylate] | ≤ 10
8 | NC(=O)c1ccc(-c2ccnc(NCCCOc3cccc(-c4ccccc4)c3)n2)cc1 [4-(2-{[3-(3-phenylphenoxy)propyl]-amino}pyrimidin-4-yl)benzamide] | ≤ 10
9 | O=C(NCc1cccc([N+](=O)[O-])c1)c1ccc(-c2ccnc(NCCNc3ccc([N+](=O)[O-])cn3)n2)cc1 [{4-[2-({2-[(5-nitro(2-pyridyl))amino]ethyl}amino)pyrimidin-4-yl]phenyl}-N-[(3-nitrophenyl)-methyl]carboxamide] | ≤ 10
10 | NC(=O)c1ccc(-c2ccnc(NCc3cccc(-c4cccc(N)c4)c3)n2)cc1 [4-[2-({[3-(3-aminophenyl)phenyl]methyl}amino)pyrimidin-4-yl]benzamide] | ≤ 10
11 | CCOC(=O)c1cnc(NCCNc2ccc([N+](=O)[O-])cn2)nc1-c1ccc(S(N)(=O)=O)cc1 [ethyl 2-({2-[(5-nitro(2-pyridyl))amino]ethyl}amino)-4-(4-sulfamoylphenyl)pyrimidine-5-carboxylate] | ≤ 10
12 | O=[N+]([O-])c1ccc(NCCNc2nccc(NCc3cccc(Br)c3)n2)nc1 [(4-{[(3-bromophenyl)methyl]amino}pyrimidin-2-yl){2-[(5-nitro(2-pyridyl))amino]ethyl}-amine] | ≤ 10
13 | Cc1cnc(CNc2nccc(-c3ccc(C(N)=O)cc3)n2)cn1 [4-(2-{[(5-methylpyrazin-2-yl)methyl]amino}pyrimidin-4-yl)benzamide] | ≤ 10
14 | Cc1cccc(CNC(=O)c2ccc(-c3ccnc(NCc4cccc(Br)c4)n3)cc2)c1 [[4-(2-{[(3-bromophenyl)methyl]amino}pyrimidin-4-yl)phenyl]-N-[(3-methylphenyl)methyl]carboxamide] | ≤ 10
15 | NC(=O)c1ccc(-c2ccnc(NCc3ccc(N)cc3)n2)cc1 [4-(2-{[(4-aminophenyl)methyl]amino}-pyrimidin-4-yl)benzamide] | ≤ 10
16 | NC(=O)c1ccc(-c2ccnc(NCc3cccc(Cl)c3)n2)cc1 [4-(2-{[(3-chlorophenyl)methyl]amino}pyrimidin-4-yl)benzamide] | ≤ 10
17 | CCOC(=O)c1cnc(NCCNc2ccc(C(=O)N3CCOCC3)cn2)nc1-c1ccc(C#N)cc1 [ethyl 4-(4-cyanophenyl)-2-[(2-{[5-(morpholin-4-ylcarbonyl)(2-pyridyl)]amino}ethyl)amino]pyrimidine-5-carboxylate] | ≤ 10
18 | N#Cc1ccc(NCCNc2ccc([N+](=O)[O-])c(NCc3ccccc3)n2)nc1 [6-{[2-({5-nitro-6-[benzylamino]-2-pyridyl}amino)ethyl]amino}pyridine-3-carbonitrile] | ≤ 10
19 | O=C(NCc1ccc(Cl)c(Cl)c1)c1ccc(-c2ccnc(NCCNc3ccc([N+](=O)[O-])cn3)n2)cc1 [N-[(3,4-dichlorophenyl)methyl]{4-[2-({2-[(5-nitro(2-pyridyl))amino]ethyl}amino)pyrimidin-4-yl]phenyl}carboxamide] | ≤ 10
20 | O=C(O)c1c(-c2ccc([N+](=O)[O-])cc2)nc(NCCNc2ccc([N+](=O)[O-])cn2)nc1-c1cccc([N+](=O)[O-])c1 [2-({2-[(5-nitro(2-pyridyl))amino]ethyl}amino)-4-(3-nitrophenyl)-6-(4-nitrophenyl)pyrimidine-5-carboxylic acid] | ≤ 10
21 | Nc1nc(NCCNc2nccc(-c3ccc(C(=O)NCc4ccccc4)cc3)n2)ccc1[N+](=O)[O-] [{4-[2-({2-[(6-amino-5-nitro(2-pyridyl))amino]ethyl}amino)pyrimidin-4-yl]phenyl}-N-benzylcarboxamide] | ≤ 10
22 | NC(=O)c1ccc(-c2ccnc(NCCCOc3ccc(Cl)cc3Cl)n2)cc1 [4-(2-{[3-(2,4-dichlorophenoxy)propyl]amino}pyrimidin-4-yl)benzamide] | ≤ 10
23 | CCOC(=O)c1cnc(NCCNc2ccc([N+](=O)[O-])cn2)nc1-c1ccc(OC)c(OC)c1 [ethyl 4-(3,4-dimethoxyphenyl)-2-({2-[(5-nitro(2-pyridyl))amino]ethyl}amino)pyrimidine-5-carboxylate] | ≤ 10
24 | c1ccc(NCCNc2nccc(-c3cccnc3)n2)nc1 [[2-(2-pyridylamino)ethyl](4-(3-pyridyl)pyrimidin-2-yl)amine] | ≤ 10
25 | O=C(O)c1c(-c2ccc([N+](=O)[O-])cc2)nc(NCCNc2ccc([N+](=O)[O-])cn2)nc1-c1ccnc2ccccc12 [2-({2-[(5-nitro(2-pyridyl))amino]ethyl}amino)-6-(4-nitrophenyl)-4-(4-quinolyl)pyrimidine-5-carboxylic acid] | ≤ 10

Second part, the compound after the results:

Row | IC50 [µM] | Compound
26 | ≤ 1 | C/C(=N\c1cnc(NCCNc2ccc([N+](=O)[O-])c(N)n2)nc1-c1ccc(Cl)cc1Cl)N1CCOCC1 [[5-((1E)-1-aza-2-morpholin-4-ylprop-1-enyl)-4-(2,4-dichlorophenyl)pyrimidin-2-yl]{2-[(6-amino-5-nitro(2-pyridyl))amino]ethyl}amine]
27 | ≤ 1 | N#Cc1ccc(-c2nc(NCCNc3ccc([N+](=O)[O-])cn3)ncc2C(=O)N2CCOCC2)cc1 [4-[5-(morpholin-4-ylcarbonyl)-2-({2-[(5-nitro(2-pyridyl))amino]ethyl}-amino)pyrimidin-4-yl]benzenecarbonitrile]
28 | ≤ 1 | CCOC(=O)c1cnc(NCCNc2ccc([N+](=O)[O-])cn2)nc1-c1ccc(C)cc1 [ethyl 4-(4-methylphenyl)-2-({2-[(5-nitro(2-pyridyl))amino]ethyl}amino)pyrimidine-5-carboxylate]
29 | ≤ 1 | N#Cc1ccc(-c2nc(NCCNc3ccc([N+](=O)[O-])cn3)nc(-c3ccc(F)cc3)c2C(=O)O)cc1 [4-(4-cyanophenyl)-6-(4-fluorophenyl)-2-({2-[(5-nitro(2-pyridyl))amino]ethyl}-amino)pyrimidine-5-carboxylic acid]
30 | ≤ 1 | CCOC(=O)c1cnc(NCCNc2ccc([N+](=O)[O-])cn2)nc1-c1ccc(-c2nnn[nH]2)cc1 [ethyl 4-(4-(1H-1,2,3,4-tetraazol-5-yl)phenyl)-2-({2-[(5-nitro(2-pyridyl))amino]ethyl}amino)pyrimidine-5-carboxylate]
31 | ≤ 1 | CCOC(=O)c1cnc(NCCNc2ccc([N+](=O)[O-])cc2)nc1-c1ccc(C#N)cc1 [ethyl 4-(4-cyanophenyl)-2-({2-[(4-nitrophenyl)amino]ethyl}amino)-pyrimidine-5-carboxylate]
32 | ≤ 1 | N#Cc1cnc(NCCNc2nccc(-c3ccc(C(=O)NCc4cccc(Br)c4)cc3)n2)nc1N [{4-[2-({2-[(4-amino-5-cyanopyrimidin-2-yl)amino]ethyl}amino)pyrimidin-4-yl]phenyl}-N-[(3-bromophenyl)methyl]carboxamide]
33 | ≤ 1 | Cc1c[nH]c(-c2cnc(NCCNc3ccc([N+](=O)[O-])cn3)nc2-c2ccc(Cl)cc2Cl)n1 [[4-(2,4-dichlorophenyl)-5-(4-methylimidazol-2-yl)pyrimidin-2-yl]{2-[(5-nitro(2-pyridyl))amino]ethyl}amine]
34 | ≤ 1 | O=[N+]([O-])c1ccc(NCCNc2ncc(-n3cnc4ccccc43)c(-c3ccc(Cl)cc3Cl)n2)nc1 [[5-benzimidazolyl-4-(2,4-dichlorophenyl)pyrimidin-2-yl]{2-[(5-nitro-(2-pyridyl))amino]ethyl}amine]
35 | ≤ 1 | COc1cccc(NCCNc2nccc(-c3ccc(C(N)=O)cc3)n2)n1 [4-[2-({2-[(6-methoxy-2-pyridyl)amino]ethyl}amino)pyrimidin-4-yl]benzamide]
36 | ≤ 1 | NC(=O)c1ccc(-c2ccnc(NCCNc3ccc4ccccc4n3)n2)cc1 [4-(2-{[2-(2-quinolylamino)ethyl]amino}pyrimidin-4-yl)benzamide]
37 | ≤ 1 | Nc1nc(NCCNc2ncc(-c3ncc[nH]3)c(-c3ccc(F)cc3Cl)n2)ccc1[N+](=O)[O-] [{2-[(6-amino-5-nitro(2-pyridyl))amino]ethyl}[4-(2-chloro-4-fluorophenyl)-5-imidazol-2-ylpyrimidin-2-yl]amine]
38 | ≤ 1 | N#Cc1ccc(-c2nc(NCCNc3ccc([N+](=O)[O-])cn3)ncc2C(=O)OCC(O)CN2CCOCC2)cc1 (stereo not shown) [2-hydroxy-3-morpholin-4-yl-propyl 4-(4-cyanophenyl)-2-({2-[(5-nitro(2-pyridyl))amino]ethyl}amino)pyrimidine-5-carboxylate]
39 | ≤ 1 | CCOC(=O)c1cnc(NCCNc2ccc([N+](=O)[O-])c(N)n2)nc1-c1ccc(-c2cnco2)cc1 [ethyl 2-({2-[(6-amino-5-nitro(2-pyridyl))amino]ethyl}amino)-4-(4-(1,3-oxazol-5-yl)phenyl)pyrimidine-5-carboxylate]
40 | ≤ 1 | CCOC(=O)c1cnc(NCCNc2ccc([N+](=O)[O-])cn2)nc1-c1ccc(C(C)(C)C)cc1 [ethyl 4-[4-(tert-butyl)-phenyl]-2-({2-[(5-nitro(2-pyridyl))amino]ethyl}amino)pyrimidine-5-carboxylate]

Reference: US7425557B2, “Inhibitors of glycogen synthase kinase 3” (Novartis Vaccines and Diagnostics, Inc., priority 1998, dated 2008)
